Experimental data published in patent US20120029187A1, “HALOALKYLSULFONANILIDE DERIVATIVE” (Nissan Chemical Industries, Ltd., priority 2009, published 2012).

What was measured:
Type in all cases: in vivo
transplanted rice = assay: Test Example 1: preemergence treatment under submerged conditions, effect on crop; details: dose 2.52 g/a
Method in brief: (§1)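 Alluvial soil flooded to 4 cm depth; barnyardgrass, bulrush and ducksalad sown and 2.5-leaf rice seedlings transplanted. Same day, water-diluted emulsifiable concentrates applied to the water surface at set doses (g/a). Kept at 25–30 °C in greenhouse; effects scored 0–5 by mortality after three weeks.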

ducksalad [1] = assay: Test Example 2: herbicidal effects during the vegetation period under submerged conditions; details: treatment during the vegetation period under submerged conditions; dose 2.52 g/a
Method in brief: (§2)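 Barnyardgrass, bulrush and ducksalad were co-sown in alluvial soil flooded to 4 cm and grown in a greenhouse at 25 to 30° C. At the 1- or 2-leaf stage, water-diluted emulsifiable concentrates went onto the water surface at set doses (g/a). Herbicidal effect was scored three weeks later on a graded scale.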

bulrush [2] = assay: as above; details: treatment during the vegetation period under submerged conditions; dose 2.52 g/a
Method in brief: as §2

barnyardgrass [3] = assay: as above; details: treatment during the vegetation period under submerged conditions; dose 2.52 g/a
Method in brief: as §2

ducksalad [4] = assay: Test Example 1: herbicidal effects in preemergence treatment under submerged conditions; details: dose 2.52 g/a
Method in brief: as §1

bulrush [5] = assay: as above; details: dose 2.52 g/a
Method in brief: as §1

barnyardgrass [6] = assay: as above; details: dose 2.52 g/a
Method in brief: as §1

common chickweed [7] = assay: Test Example 4: herbicidal effect in foliage treatment; details: dose 3.2 g/a
Method in brief: (§3)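 Seeds were spot-sown in boxes of sterilized diluvial soil and raised in a greenhouse (25 to 30° C) for 14 days before a single foliar application. Compounds were applied as emulsifiable concentrates diluted with water, at predetermined doses in g/a. Injury was graded three weeks post-spray.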

giant foxtail [8] = assay: as above; details: dose 3.2 g/a
Method in brief: as §3

water foxtail [9] = assay: as above; details: dose 3.2 g/a
Method in brief: as §3

common ragweed [10] = assay: as above; details: dose 3.2 g/a
Method in brief: as §3

Italian ryegrass [11] = assay: as above; details: dose 3.2 g/a
Method in brief: as §3

beadstraw [12] = assay: as above; details: dose 3.2 g/a, three weeks after application
Method in brief: as §3

redroot pigweed [13] = assay: as above; details: dose 3.2 g/a
Method in brief: as §3

large crabgrass [14] = assay: as above; details: dose 3.2 g/a
Method in brief: as §3

barnyardgrass [15] = assay: as above; details: dose 3.2 g/a
Method in brief: as §3

common lambsquater [16] = assay: as above; details: dose 3.2 g/a
Method in brief: as §3

posumbu knotweed = assay: as above; details: dose 3.2 g/a
Method in brief: as §3

velvetleaf [17] = assay: as above; details: dose 3.2 g/a
Method in brief: as §3

common chickweed [18] = assay: Test Example 3: herbicidal effects in soil treatment; details: dose 3.2 g/a
Method in brief: (§4)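 Seeds were sown in sterilized diluvial soil and covered with about 1.5 cm of soil. Compounds, formulated as emulsifiable concentrates and diluted with water, were sprayed evenly over the soil surface at set doses in g/a. Herbicidal effect was scored on a rating scale three weeks later.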

giant foxtail [19] = assay: as above; details: dose 3.2 g/a
Method in brief: as §4

water foxtail [20] = assay: as above; details: dose 3.2 g/a
Method in brief: as §4

common ragweed [21] = assay: as above; details: dose 3.2 g/a
Method in brief: as §4

Italian ryegrass [22] = assay: as above; details: dose 3.2 g/a
Method in brief: as §4

beadstraw [23] = assay: as above; details: dose 3.2 g/a
Method in brief: as §4

redroot pigweed [24] = assay: as above; details: dose 3.2 g/a
Method in brief: as §4

large crabgrass [25] = assay: as above; details: dose 3.2 g/a
Method in brief: as §4

barnyardgrass [26] = assay: as above; details: dose 3.2 g/a
Method in brief: as §4

common lambsquater [27] = assay: as above; details: dose 3.2 g/a
Method in brief: as §4

velvetleaf [28] = assay: as above; details: dose 3.2 g/a
Method in brief: as §4

[29] = three weeks after the application

O=C1CC2(CCC2)OCN1Cc1ccccc1NS(=O)(=O)C(F)(F)F [II-61]
a: transplanted rice, effect on crop (evaluation scale 0-5) (transplanted rice): 2 (mortality of at least 20% and less than 40%) | C: ducksalad, herbicidal effect (evaluation scale 0-5) (ducksalad [1]): 5 (mortality of 90% or above (nearly complete death)) | B: bulrush, herbicidal effect (evaluation scale 0-5) (bulrush [2]): 5 (mortality of 90% or above (nearly complete death)) | A: barnyardgrass, herbicidal effect (evaluation scale 0-5) (barnyardgrass [3]): 5 (mortality of 90% or above (nearly complete death)) | C: ducksalad, herbicidal effect (evaluation scale 0-5) (ducksalad [4]): 5 (mortality of 90% or above (nearly complete death)) | B: bulrush, herbicidal effect (evaluation scale 0-5) (bulrush [5]): 5 (mortality of 90% or above (nearly complete death)) | A: barnyardgrass, herbicidal effect (evaluation scale 0-5) (barnyardgrass [6]): 5 (mortality of 90% or above (nearly complete death)) | N: common chickweed, herbicidal effect (common chickweed [7]; three weeks after application): 4 (mortality of at least 70% and less than 90%) | E: giant foxtail, herbicidal effect (giant foxtail [8]; three weeks after application): 5 (mortality of 90% or above (nearly complete death)) | G: water foxtail, herbicidal effect (water foxtail [9]; three weeks after application): 5 (mortality of 90% or above (nearly complete death)) | J: common ragweed, herbicidal effect (common ragweed [10]; three weeks after application): 3 (mortality of at least 40% and less than 70%) | H: Italian ryegrass, herbicidal effect (Italian ryegrass [11]; three weeks after application): 4 (mortality of at least 70% and less than 90%) | O: beadstraw, herbicidal effect (beadstraw [12]): 3 (mortality of at least 40% and less than 70%) | K: redroot pigweed, herbicidal effect (redroot pigweed [13]; three weeks after application): 0 (mortality of less than 5% (almost ineffective)) | D: large crabgrass, herbicidal effect (large crabgrass [14]; three weeks after application): 4 (mortality of at least 70% and less than 90%) | A: barnyardgrass, herbicidal effect (barnyardgrass [15]; three weeks after application): 5 (mortality of 90% or above (nearly complete death)) | L: common lambsquater, herbicidal effect (common lambsquater [16]; three weeks after application): 3 (mortality of at least 40% and less than 70%) | M: posumbu knotweed, herbicidal effect (posumbu knotweed; three weeks after application): 4 (mortality of at least 70% and less than 90%) | I: velvetleaf, herbicidal effect (velvetleaf [17]; three weeks after application): 5 (mortality of 90% or above (nearly complete death)) | N: common chickweed, herbicidal effect (evaluation scale 0-5) (common chickweed [18]): 5 (mortality of 90% or above (nearly complete death)) | E: giant foxtail, herbicidal effect (evaluation scale 0-5) (giant foxtail [19]): 5 (mortality of 90% or above (nearly complete death)) | G: water foxtail, herbicidal effect (evaluation scale 0-5) (water foxtail [20]): 5 (mortality of 90% or above (nearly complete death)) | J: common ragweed, herbicidal effect (evaluation scale 0-5) (common ragweed [21]): 4 (mortality of at least 70% and less than 90%) | H: Italian ryegrass, herbicidal effect (evaluation scale 0-5) (Italian ryegrass [22]): 5 (mortality of 90% or above (nearly complete death)) | O: beadstraw, herbicidal effect (evaluation scale 0-5) (beadstraw [23]): 5 (mortality of 90% or above (nearly complete death)) | K: redroot pigweed, herbicidal effect (evaluation scale 0-5) (redroot pigweed [24]): 5 (mortality of 90% or above (nearly complete death)) | D: large crabgrass, herbicidal effect (evaluation scale 0-5) (large crabgrass [25]): 5 (mortality of 90% or above (nearly complete death)) | A: barnyardgrass, herbicidal effect (evaluation scale 0-5) (barnyardgrass [26]): 5 (mortality of 90% or above (nearly complete death)) | L: common lambsquater, herbicidal effect (evaluation scale 0-5) (common lambsquater [27]): 5 (mortality of 90% or above (nearly complete death)) | I: velvetleaf, herbicidal effect (evaluation scale 0-5) (velvetleaf [28]): 5 (mortality of 90% or above (nearly complete death))

CCC(=O)N(c1ccccc1CN1C(=O)CC(C)(C)OC1C)S(=O)(=O)C(F)(F)F (centres unmarked) [II-73]
a: transplanted rice, effect on crop (evaluation scale 0-5) (transplanted rice): 3 (mortality of at least 40% and less than 70%) | C: ducksalad, herbicidal effect (evaluation scale 0-5) (ducksalad [1]): 5 (mortality of 90% or above (nearly complete death)) | B: bulrush, herbicidal effect (evaluation scale 0-5) (bulrush [2]): 5 (mortality of 90% or above (nearly complete death)) | A: barnyardgrass, herbicidal effect (evaluation scale 0-5) (barnyardgrass [3]): 5 (mortality of 90% or above (nearly complete death)) | C: ducksalad, herbicidal effect (evaluation scale 0-5) (ducksalad [4]): 5 (mortality of 90% or above (nearly complete death)) | B: bulrush, herbicidal effect (evaluation scale 0-5) (bulrush [5]): 5 (mortality of 90% or above (nearly complete death)) | A: barnyardgrass, herbicidal effect (evaluation scale 0-5) (barnyardgrass [6]): 5 (mortality of 90% or above (nearly complete death)) | N: common chickweed, herbicidal effect (common chickweed [7]; [29]): 2 (mortality of at least 20% and less than 40%) | E: giant foxtail, herbicidal effect (giant foxtail [8]; [29]): 4 (mortality of at least 70% and less than 90%) | G: water foxtail, herbicidal effect (water foxtail [9]; [29]): 5 (mortality of 90% or above (nearly complete death)) | J: common ragweed, herbicidal effect (common ragweed [10]; [29]): 2 (mortality of at least 20% and less than 40%) | H: Italian ryegrass, herbicidal effect (Italian ryegrass [11]; [29]): 5 (mortality of 90% or above (nearly complete death)) | K: redroot pigweed, herbicidal effect (redroot pigweed [13]; [29]): 0 (mortality of less than 5% (almost ineffective)) | D: large crabgrass, herbicidal effect (large crabgrass [14]; [29]): 4 (mortality of at least 70% and less than 90%) | A: barnyardgrass, herbicidal effect (barnyardgrass [15]; [29]): 5 (mortality of 90% or above (nearly complete death)) | L: common lambsquater, herbicidal effect (common lambsquater [16]; [29]): 0 (mortality of less than 5% (almost ineffective)) | M: posumbu knotweed, herbicidal effect (posumbu knotweed; [29]): 4 (mortality of at least 70% and less than 90%) | I: velvetleaf, herbicidal effect (velvetleaf [17]; [29]): 5 (mortality of 90% or above (nearly complete death)) | N: common chickweed, herbicidal effect (evaluation scale 0-5) (common chickweed [18]): 0 (mortality of less than 5% (almost ineffective)) | E: giant foxtail, herbicidal effect (evaluation scale 0-5) (giant foxtail [19]): 5 (mortality of 90% or above (nearly complete death)) | G: water foxtail, herbicidal effect (evaluation scale 0-5) (water foxtail [20]): 5 (mortality of 90% or above (nearly complete death)) | J: common ragweed, herbicidal effect (evaluation scale 0-5) (common ragweed [21]): 3 (mortality of at least 40% and less than 70%) | H: Italian ryegrass, herbicidal effect (evaluation scale 0-5) (Italian ryegrass [22]): 5 (mortality of 90% or above (nearly complete death)) | O: beadstraw, herbicidal effect (evaluation scale 0-5) (beadstraw [23]): 4 (mortality of at least 70% and less than 90%) | K: redroot pigweed, herbicidal effect (evaluation scale 0-5) (redroot pigweed [24]): 0 (mortality of less than 5% (almost ineffective)) | D: large crabgrass, herbicidal effect (evaluation scale 0-5) (large crabgrass [25]): 5 (mortality of 90% or above (nearly complete death)) | A: barnyardgrass, herbicidal effect (evaluation scale 0-5) (barnyardgrass [26]): 5 (mortality of 90% or above (nearly complete death)) | L: common lambsquater, herbicidal effect (evaluation scale 0-5) (common lambsquater [27]): 0 (mortality of less than 5% (almost ineffective)) | I: velvetleaf, herbicidal effect (evaluation scale 0-5) (velvetleaf [28]): 5 (mortality of 90% or above (nearly complete death))
